Source: patent publication USRE39591E1, “6-O-substituted ketolides having antibacterial activity” (Abbott Laboratories, priority 1996, dated 2007)
Converted amounts (≈) assume the structure as drawn.

Test system: up to 32 different microorganisms
Test: in vitro antibacterial activity (MIC), agar dilution on Brain Heart Infusion (BHI) agar with Steers replicator
Assay type: cell-based
Conditions: unit assumed
Method in brief: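 MIC read visually: lowest drug level with no growth, slight haze or sparsely isolated colonies on the inoculum spot relative to drug-free control. Serial aqueous compound dilutions in BHI agar, 1:100 inoculum (1:10 slow strains), 20 to 24 hours at 35°-37° C.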

[1] = Candida albicans CCH 442 (code TT)
[2] = Enterococcus faecism ATCC 8043 (code II)
[3] = Escherichia coli DC-2 (code SS)
[4] = Escherichia coli JUHL (code QQ)
[5] = Haemophilis influenzae DILL AMP R (code WW)
[6] = Micrococcus luteus ATCC 4698 (code PP)
[7] = Micrococcus luteus ATCC 9341 (code OO)
[8] = Mycobacterium smegmatis ATCC 114 (code UU)
[9] = Nocardia Asteroides ATCC9970 (code VV)
[10] = Staphylococcus aureus 1775 (code GG)
[11] = Staphylococcus aureus A5177 (code BB)
[12] = Staphylococcus aureus A-5278 (code CC)
[13] = Staphylococcus aureus ATCC 6538P (code AA)
[14] = Staphylococcus aureus CMX 553 (code FF)
[15] = Staphylococcus aureus CMX 642A (code DD)
[16] = Staphylococcus aureus NCTC10649M (code EE)
[17] = Staphylococcus epidermidis 3519 (code HH)
[18] = Streptococcus Pneumonia 5649 (code ZZA)
[19] = Streptococcus Pneumonia 5979 (code ZZ)
[20] = Streptococcus Pneumonia ATCC6303 (code XX)
[21] = Streptococcus Pneumonia GYR 1171 (code YY)
[22] = Streptococcus agalactiae CMX 508 (code KK)
[23] = Streptococcus bovis A-5169 (code JJ)
[24] = Streptococcus pyogenes 930 (code MM)
[25] = Streptococcus pyogenes EES61 (code LL)
[26] = Streptococcus pyogenes PIU 2548 (code NN)

In the case of C=CCO[C@@]1(C)C[C@@H](C)C(=O)[C@H](C)[C@H]2N(C)C(=O)O[C@]2(C)[C@@H](CC)OC(=O)[C@H](C)C(=O)[C@H](C)[C@H]1O[C@@H]1O[C@H](C)C[C@H](N(C)C)[C@H]1O [Example 179, Compound of Formula (IX): L is CO, T is N(CH3), R is —CH2CH═CH2], the MIC [1] is reported as greater than 100 µg/mL, the MIC [2] is reported as 1.56 µg/mL and the MIC [3] is reported as greater than 100 µg/mL. The MIC [4] was greater than 100 µg/mL, the MIC (Escherichia coli SS (code RR)) was 6.2 µg/mL and the MIC [5] was greater than 128 µg/mL. It also gave an MIC [6] of 3.1 µg/mL, an MIC [7] of 1.56 µg/mL and an MIC [8] of 12.5 µg/mL. It also gave an MIC [9] of 3.1 µg/mL, an MIC [10] greater than 100 µg/mL and an MIC [11] of 6.2 µg/mL. It also gave an MIC [12] greater than 100 µg/mL, an MIC [13] of 6.2 µg/mL and an MIC [14] of 6.2 µg/mL. The MIC [15] was 6.2 µg/mL, the MIC [16] was 6.2 µg/mL and the MIC [17] was 12.5 µg/mL. For the same compound, the MIC [18] was 0.5 µg/mL, the MIC [19] was greater than 128 µg/mL and the MIC [20] was 0.5 µg/mL. It also gave an MIC [21] of 0.5 µg/mL, an MIC [22] of 0.39 µg/mL and an MIC [23] of 0.39 µg/mL. It also gave an MIC [24] greater than 100 µg/mL, an MIC [25] of 0.39 µg/mL and an MIC [26] of 0.78 µg/mL.
CC[C@H]1OC(=O)[C@H](C)C(=O)[C@H](C)[C@@H](O[C@@H]2O[C@H](C)C[C@H](N(C)C)[C@H]2O)[C@@](C)(OCC#N)C[C@@H](C)C(=O)[C@H](C)[C@@H](O)[C@]1(C)O [Example 7, Compound of Formula (VIII): X is O, R is —CH2CN] gave an MIC [1] greater than 100 µg/mL, an MIC [2] of 1.56 µg/mL and an MIC [3] greater than 100 µg/mL. For the same compound, the MIC [4] was greater than 100 µg/mL, the MIC (Escherichia coli SS (code RR)) was 3.1 µg/mL and the MIC [6] was 1.56 µg/mL. For the same compound, the MIC [7] was 0.39 µg/mL, the MIC [8] was greater than 100 µg/mL and the MIC [9] was 0.78 µg/mL. The MIC [10] was greater than 100 µg/mL, the MIC [11] was 3.1 µg/mL and the MIC [12] was greater than 100 µg/mL. It also gave an MIC [13] of 3.1 µg/mL, an MIC [14] of 3.1 µg/mL and an MIC [15] of 3.1 µg/mL. For the same compound, the MIC [16] was 3.1 µg/mL, the MIC [17] was 3.1 µg/mL and the MIC [22] was 0.78 µg/mL. The MIC [23] was 0.78 µg/mL, the MIC [24] was greater than 100 µg/mL and the MIC [25] was 1.56 µg/mL. For the same compound, the MIC [26] was 3.1 µg/mL.
Work on CCC1OC(=O)C(C)C(=O)C(C)C(OC2OC(C)CC(N(C)C)C2O)C(C)(OCC=Cc2ccc3nc(C)ccc3c2)CC(C)C(=O)C(C)C2NC(=O)OC12C (centres unmarked) [Example 197, R is —CH2CH═CH-(2-methyl-6-quinolyl)] yielded an MIC [1] greater than 100 µg/mL, an MIC [2] of 0.05 µg/mL (≈ 0.0641 µM) and an MIC [3] of 100 µg/mL (≈ 128 µM). The MIC [4] was 100 µg/mL (≈ 128 µM), the MIC (Escherichia coli SS (code RR)) was 0.2 µg/mL (≈ 0.256 µM) and the MIC [6] was 0.2 µg/mL (≈ 0.256 µM). For the same compound, the MIC [7] was 0.02 µg/mL (≈ 0.0256 µM), the MIC [8] was 1.56 µg/mL (≈ 2 µM) and the MIC [9] was 0.1 µg/mL (≈ 0.128 µM). For the same compound, the MIC [10] was greater than 100 µg/mL, the MIC [11] was 0.1 µg/mL (≈ 0.128 µM) and the MIC [12] was greater than 100 µg/mL. For the same compound, the MIC [13] was 0.1 µg/mL (≈ 0.128 µM), the MIC [14] was 0.2 µg/mL (≈ 0.256 µM) and the MIC [15] was 0.1 µg/mL (≈ 0.128 µM). For the same compound, the MIC [16] was 0.2 µg/mL (≈ 0.256 µM), the MIC [17] was 0.1 µg/mL (≈ 0.128 µM) and the MIC [22] was no more than 0.005 µg/mL. It also gave an MIC [23] of no more than 0.005 µg/mL, an MIC [24] of 100 µg/mL (≈ 128 µM) and an MIC [25] of no more than 0.005 µg/mL. The MIC [26] was 0.1 µg/mL (≈ 0.128 µM).
With CCC1OC(=O)C(C)C(=O)C(C)C(OC2OC(C)CC(N(C)C)C2O)C(C)(OCC=Cc2ccc3c(c2)OCO3)CC(C)C(=O)C(C)C2NC(=O)OC12C (centres unmarked) [Example 188, R is —CH2CH═CH-(3,4-methylenedioxyphenyl)] the MIC [1] was greater than 100 µg/mL, the MIC [2] was 0.05 µg/mL (≈ 0.0659 µM) and the MIC [3] was greater than 100 µg/mL. For the same compound, the MIC [4] was greater than 100 µg/mL, the MIC (Escherichia coli SS (code RR)) was 0.78 µg/mL (≈ 1.03 µM) and the MIC [5] was 8 µg/mL (≈ 10.5 µM). For the same compound, the MIC [6] was 0.2 µg/mL (≈ 0.264 µM), the MIC [7] was 0.02 µg/mL (≈ 0.0264 µM) and the MIC [8] was 0.78 µg/mL (≈ 1.03 µM). It also gave an MIC [9] of 0.39 µg/mL (≈ 0.514 µM), an MIC [10] greater than 100 µg/mL and an MIC [11] of 0.1 µg/mL (≈ 0.132 µM). It also gave an MIC [12] greater than 100 µg/mL, an MIC [13] of 0.1 µg/mL (≈ 0.132 µM) and an MIC [14] of 0.1 µg/mL (≈ 0.132 µM). It also gave an MIC [15] of 0.1 µg/mL (≈ 0.132 µM), an MIC [16] of 0.2 µg/mL (≈ 0.264 µM) and an MIC [17] of 0.2 µg/mL (≈ 0.264 µM). It also gave an MIC [18] of 1 µg/mL (≈ 1.32 µM), an MIC [19] greater than 64 µg/mL and an MIC [20] of 0.03 µg/mL (≈ 0.0395 µM). For the same compound, the MIC [21] was 0.03 µg/mL (≈ 0.0395 µM), the MIC [22] was no more than 0.005 µg/mL and the MIC [23] was no more than 0.005 µg/mL. It also gave an MIC [24] of 25 µg/mL (≈ 32.9 µM), an MIC [25] of 0.01 µg/mL (≈ 0.0132 µM) and an MIC [26] of 0.1 µg/mL (≈ 0.132 µM).
Compound CC[C@H]1OC(=O)[C@H](C)C(=O)[C@H](C)[C@@H](O[C@@H]2O[C@H](C)C[C@H](N(C)C)[C@H]2O)[C@@](C)(OCC=NOCc2ccc([N+](=O)[O-])cc2)C[C@@H](C)C(=O)[C@H](C)[C@H]2NC(=O)O[C@@]21C [Example 230, Compound of Formula (IX): L is CO, T is NH, R is —CH2CH═NOCH2(4-NO2-phenyl)] has an MIC (organism code AA) of 0.1 µg/mL, an MIC (organism code BB) of 0.1 µg/mL and an MIC (organism code CC) greater than 100 µg/mL. The MIC (organism code DD) was 0.1 µg/mL, the MIC (organism code EE) was 0.1 µg/mL and the MIC (organism code FF) was 0.2 µg/mL. The MIC (organism code GG) was greater than 100 µg/mL, the MIC (organism code HH) was 0.1 µg/mL and the MIC (organism code II) was 0.05 µg/mL. The MIC (organism code JJ) was no more than 0.005 µg/mL, the MIC (organism code KK) was no more than 0.005 µg/mL and the MIC (organism code LL) was no more than 0.005 µg/mL. For the same compound, the MIC (organism code MM) was greater than 100 µg/mL, the MIC (organism code NN) was 0.05 µg/mL and the MIC (organism code OO) was 0.05 µg/mL. For the same compound, the MIC (organism code PP) was 0.2 µg/mL, the MIC (organism code QQ) was 100 µg/mL and the MIC (organism code RR) was 0.39 µg/mL. It also gave an MIC (organism code SS) greater than 100 µg/mL, an MIC (organism code TT) greater than 100 µg/mL and an MIC (organism code UU) of 0.78 µg/mL. For the same compound, the MIC (organism code VV) was 0.05 µg/mL, the MIC (organism code WW) was 2 µg/mL and the MIC (organism code XX) was 0.03 µg/mL. For the same compound, the MIC (organism code YY) was 0.015 µg/mL, the MIC (organism code ZZ) was 128 µg/mL and the MIC (organism code ZZA) was 0.25 µg/mL.
